Experimental data: patent publication US20210269504A1, “PROTEIN-BASED MICELLES FOR THE DELIVERY OF HYDROPHOBIC ACTIVE COMPOUNDS” (priority 2018, published 2021)

Test: Loading of 2Yx2A micelles with pyraclostrobin (A280 and HPLC quantification)
Format: physicochemical
Experimental: Pyraclostrobin is a highly water-insoluble organic compound that is also a potent fungicide. […] To determine if pyraclostrobin could be taken up into 2Yx2A micelles, pyraclostrobin was added until it saturated a solution of 100 μL of 11 μM (A280: 0.361) 2Yx2A, evidenced by yellow particulates. The solution was then centrifuged and the supernatant was removed and then placed in a fresh tube and centrifuged again. Supernatant removal and centrifugation were repeated 3 times to remove any insoluble pyraclostrobin that has not partitioned into the micelle interior. The solution was then measured with a nanodrop to determine its absorbance at 280 nm resulting in an A280 of 0.502 (+0.141 mAU). Given the pyrene extinction coefficient of 24,000 at A275, this increase in absorbance corresponds to the presence of 5.8 μM pyrene. Similarly, the same sample can be analyzed for pyraclostrobin content via HPLC using a calibration curved developed using known pyrene concentrations in acetonitrile (FIG. 18A). For HPLC analysis the protein-pyraclostrobin solution is diluted to ½ of its volume by pyrene to break apart the micelles. Then a known volume is injected onto the HPLC (FIG. 18B). Based on the area of the pyrene peak and volume injected the number of moles and thus the concentration of pyraclostrobin can be determined. Using this method, 7.37 μM pyraclostrobin is encapsulated in 11 μM of protein.
Instead of directly adding pyraclostrobin to a solution of 2Yx2A micelles an alternative method was used to achieve higher loading efficiency. This method involved the co-resuspension of lyophilized protein and pyraclostrobin in THF which is then slowly diluted with buffer. The solution was then centrifuged and the supernatant was removed and then placed in a fresh tube and centrifuged again. Supernatant removal and centrifugation were repeated 3 times to remove any insoluble pyraclostrobin that has not partitioned into the micelle interior. The sample was then lyophilized to remove all solvent and then resuspended in milliQ water. Although no visible precipitation was observed, the sample was centrifuged to remove any unincorporated pyraclostrobin. For HPLC analysis the protein-pyraclostrobin solution is diluted to ½ of its volume by pyrene to break apart the micelles. Then a known volume is injected onto the HPLC. Based on the area of the pyrene peak and volume injected the number of moles and thus the concentration of pyraclostrobin can be determined.

## COC(=O)N(OC)c1ccccc1COc1ccn(-c2ccc(Cl)cc2)n1 [pyraclostrobin]
Direct addition to 11 μM 2Yx2A
  Concentration encapsulated in micelles (HPLC): 7.37 µM
Resuspended in water, without 2Yx2A
  Amount injected on the HPLC: 0.03 nmol
Resuspended with 2Yx2A (THF co-resuspension, 100 mM PB pH 5.7)
  Amount injected on the HPLC: 0.63 nmol

## c1cc2ccc3cccc4ccc(c1)c2c34 [pyrene]
Direct addition to 11 μM 2Yx2A, +0.141 absorbance, extinction coefficient 24,000
  Concentration present from increase in A280: 5.8 µM
